Experiments:
Type in all cases: cell-based
human TLR7 = target: T1, human TLR7 (Homo sapiens, UniProt Q9NYK1); assay: TLR7 inhibition reporter assay (HEK-Blue, SEAP); conditions: HEK-Blue cells overexpressing human TLR7, gardiquimod 7.5 μM, 22 hour incubation
T1 construct: host or cells: HEK-Blue cells
T1 sequence (Q9NYK1 27-1049): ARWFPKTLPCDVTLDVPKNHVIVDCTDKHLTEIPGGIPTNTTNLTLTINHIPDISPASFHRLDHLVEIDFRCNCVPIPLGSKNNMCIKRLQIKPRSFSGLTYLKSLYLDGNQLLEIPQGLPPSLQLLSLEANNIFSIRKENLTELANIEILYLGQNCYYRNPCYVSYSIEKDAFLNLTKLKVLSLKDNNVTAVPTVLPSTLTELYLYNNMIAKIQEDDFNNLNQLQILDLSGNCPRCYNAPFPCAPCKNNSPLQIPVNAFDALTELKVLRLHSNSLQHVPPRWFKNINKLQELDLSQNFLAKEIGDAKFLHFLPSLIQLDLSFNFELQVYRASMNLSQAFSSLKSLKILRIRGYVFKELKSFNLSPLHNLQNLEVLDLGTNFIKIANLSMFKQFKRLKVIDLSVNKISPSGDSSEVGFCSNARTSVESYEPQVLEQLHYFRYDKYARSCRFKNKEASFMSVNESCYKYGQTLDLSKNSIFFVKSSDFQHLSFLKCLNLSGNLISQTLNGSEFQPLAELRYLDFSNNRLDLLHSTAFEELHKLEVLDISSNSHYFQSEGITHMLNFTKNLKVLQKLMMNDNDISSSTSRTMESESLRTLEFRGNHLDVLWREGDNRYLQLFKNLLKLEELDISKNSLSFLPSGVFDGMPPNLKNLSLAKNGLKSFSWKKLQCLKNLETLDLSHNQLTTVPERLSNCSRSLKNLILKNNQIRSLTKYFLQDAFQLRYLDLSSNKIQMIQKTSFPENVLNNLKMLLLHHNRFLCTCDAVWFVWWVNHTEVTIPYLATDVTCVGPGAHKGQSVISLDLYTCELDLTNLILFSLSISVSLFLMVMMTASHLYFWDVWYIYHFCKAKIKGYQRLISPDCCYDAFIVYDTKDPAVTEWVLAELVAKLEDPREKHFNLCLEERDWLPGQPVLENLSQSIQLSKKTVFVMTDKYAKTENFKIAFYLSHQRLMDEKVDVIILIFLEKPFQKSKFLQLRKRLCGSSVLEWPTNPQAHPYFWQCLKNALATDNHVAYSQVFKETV
Outline: (§1)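 Human TLR7/8/9 HEK-Blue reporter lines; dose range 0.05 nM–50 μM; 30 min RT preincubation; stimulus gardiquimod 7.5 μM / R848 15.9 μM / ODN2006 5 nM respectively; 22 h, 37 °C; SEAP detected colorimetrically.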

human TLR8 = target: T2, human TLR8 (Homo sapiens, UniProt Q9NR97); assay: TLR8 inhibition reporter assay (HEK-Blue, SEAP); conditions: HEK-Blue cells overexpressing human TLR8, R848 15.9 μM, 22 hour incubation
T2 construct: host or cells: HEK-Blue cells
T2 sequence (Q9NR97 27-1041): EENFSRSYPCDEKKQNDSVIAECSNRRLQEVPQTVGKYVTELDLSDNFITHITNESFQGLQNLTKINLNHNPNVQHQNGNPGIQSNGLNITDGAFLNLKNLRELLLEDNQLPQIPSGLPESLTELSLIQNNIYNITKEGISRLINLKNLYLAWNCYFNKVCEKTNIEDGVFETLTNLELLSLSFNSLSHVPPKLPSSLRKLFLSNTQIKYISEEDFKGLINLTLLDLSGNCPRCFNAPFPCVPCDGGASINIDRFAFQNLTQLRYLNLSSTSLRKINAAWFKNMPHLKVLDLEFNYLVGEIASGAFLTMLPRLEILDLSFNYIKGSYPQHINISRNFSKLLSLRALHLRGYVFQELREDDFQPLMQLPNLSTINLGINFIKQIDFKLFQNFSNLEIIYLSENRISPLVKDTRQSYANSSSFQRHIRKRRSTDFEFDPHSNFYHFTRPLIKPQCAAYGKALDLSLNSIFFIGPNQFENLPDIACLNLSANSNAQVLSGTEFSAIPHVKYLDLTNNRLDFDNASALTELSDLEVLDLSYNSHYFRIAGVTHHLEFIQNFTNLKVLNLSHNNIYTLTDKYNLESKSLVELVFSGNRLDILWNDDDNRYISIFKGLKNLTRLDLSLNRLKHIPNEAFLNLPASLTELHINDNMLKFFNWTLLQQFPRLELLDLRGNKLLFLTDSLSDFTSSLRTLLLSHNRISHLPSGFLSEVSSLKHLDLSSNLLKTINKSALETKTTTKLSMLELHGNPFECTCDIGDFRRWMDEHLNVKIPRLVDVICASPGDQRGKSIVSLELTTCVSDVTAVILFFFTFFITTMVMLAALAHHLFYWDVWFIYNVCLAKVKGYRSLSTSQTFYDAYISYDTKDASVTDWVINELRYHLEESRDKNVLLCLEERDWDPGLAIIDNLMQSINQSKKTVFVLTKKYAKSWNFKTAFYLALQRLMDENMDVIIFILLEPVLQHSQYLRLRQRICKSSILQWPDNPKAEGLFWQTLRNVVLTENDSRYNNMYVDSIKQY
Outline: as §1

human TLR9 = target: T3, human TLR9 (Homo sapiens, UniProt Q9NR96); assay: TLR9 inhibition reporter assay (HEK-Blue, SEAP); conditions: HEK-Blue cells overexpressing human TLR9, ODN2006 5 nM, 22 hour incubation
T3 construct: host or cells: HEK-Blue cells
T3 sequence (Q9NR96 26-1032): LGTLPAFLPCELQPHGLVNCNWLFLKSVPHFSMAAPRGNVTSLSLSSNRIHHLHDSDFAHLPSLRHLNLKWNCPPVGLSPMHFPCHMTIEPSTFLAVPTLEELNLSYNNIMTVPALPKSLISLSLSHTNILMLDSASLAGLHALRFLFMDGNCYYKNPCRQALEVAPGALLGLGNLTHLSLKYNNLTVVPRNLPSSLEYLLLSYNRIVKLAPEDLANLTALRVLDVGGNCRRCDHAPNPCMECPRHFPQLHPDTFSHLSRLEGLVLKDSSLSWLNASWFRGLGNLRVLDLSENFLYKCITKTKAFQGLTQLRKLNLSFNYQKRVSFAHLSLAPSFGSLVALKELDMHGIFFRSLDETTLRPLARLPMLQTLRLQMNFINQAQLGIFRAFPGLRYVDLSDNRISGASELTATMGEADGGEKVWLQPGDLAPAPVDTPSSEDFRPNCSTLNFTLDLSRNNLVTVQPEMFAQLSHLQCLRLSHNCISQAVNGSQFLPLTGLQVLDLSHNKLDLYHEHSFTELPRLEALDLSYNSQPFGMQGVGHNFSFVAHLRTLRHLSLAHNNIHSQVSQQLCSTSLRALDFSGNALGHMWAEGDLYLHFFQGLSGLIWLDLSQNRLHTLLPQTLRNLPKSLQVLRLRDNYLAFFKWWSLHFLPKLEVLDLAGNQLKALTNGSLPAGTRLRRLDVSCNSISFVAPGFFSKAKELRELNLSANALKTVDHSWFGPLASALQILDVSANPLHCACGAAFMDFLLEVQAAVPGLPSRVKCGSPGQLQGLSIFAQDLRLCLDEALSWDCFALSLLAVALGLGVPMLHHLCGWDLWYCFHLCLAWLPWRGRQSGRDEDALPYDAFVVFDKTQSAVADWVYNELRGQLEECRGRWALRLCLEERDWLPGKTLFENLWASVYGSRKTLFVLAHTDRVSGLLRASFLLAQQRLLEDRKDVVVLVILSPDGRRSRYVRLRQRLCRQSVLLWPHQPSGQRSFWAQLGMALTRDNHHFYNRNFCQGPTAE
Outline: as §1

| SMILES | IC50 (human TLR7) | IC50 (human TLR8) | IC50 (human TLR9) |
| --- | --- | --- | --- |
| Cc1c(-c2[nH]c3ccc(C4CCN(CC(=O)N(C)C)CC4)cc3c2C(C)C)ccc2nncn12 [Example 25, 2-(4-(3-isopropyl-2-(5-methyl-[1,2,4]triazolo[4,3-a]pyridin-6-yl)-1H-indol-5-yl)piperidin-1-yl)-N,N-dimethylacetamide] | 49.5 nM | 28.5 nM | 3320 nM |
| Cc1c(-c2[nH]c3ccc(C4CCN(Cc5ncn(C)n5)CC4)cc3c2C(C)C)ccc2nncn12 [Example 26, 6-(3-isopropyl-5-(1-((1-methyl-1H-1,2,4-triazol-3-yl)methyl)piperidin-4-yl)-1H-indol-2-yl)-5-methyl-[1,2,4]triazolo[4,3-a]pyridine] | 117 nM | 27.9 nM | 12400 nM |
| COCCN1CCC(c2ccc3[nH]c(-c4cc(C)c5nncn5c4)c(C(C)C)c3c2)CC1 [Example 27, 6-(3-isopropyl-5-(1-(2-methoxyethyl)piperidin-4-yl)-1H-indol-2-yl)-8-methyl-[1,2,4]triazolo[4,3-a]pyridine] | 0.9 nM | 3.4 nM | 3500 nM |
| Cc1cc(-c2[nH]c3ccc(C4CCN(CCO)CC4)cc3c2C(C)C)cn2cnnc12 [Example 28, 2-(4-(3-isopropyl-2-(8-methyl-[1,2,4]triazolo[4,3-a]pyridin-6-yl)-1H-indol-5-yl)piperidin-1-yl) ethan-1-ol] | 0.4 nM | 3.4 nM | 454 nM |
| Cc1cc(-c2[nH]c3ccc(C4CCN(CC5(C)COC5)CC4)cc3c2C(C)C)cn2cnnc12 [Example 29, 6-(3-isopropyl-5-(1-((3-methyloxetan-3-yl)methyl)piperidin-4-yl)-1H-indol-2-yl)-8-methyl-[1,2,4]triazolo[4,3-a]pyridine] | 0.7 nM | 1.1 nM | 4330 nM |
| Cc1cc(-c2[nH]c3ccc(C4CCN(CC5COC5)CC4)cc3c2C(C)C)cn2cnnc12 [Example 30, 6-(3-isopropyl-5-(1-(oxetan-3-ylmethyl)piperidin-4-yl)-1H-indol-2-yl)-8-methyl-[1,2,4]triazolo[4,3-a]pyridine] | 0.3 nM | 1.3 nM | 3110 nM |
| Cc1cc(-c2[nH]c3ccc(C4CCN(CC#N)CC4)cc3c2C(C)C)cn2c(C)nnc12 [Example 31, 2-(4-(2-(3,8-dimethyl-[1,2,4]triazolo[4,3-a]pyridin-6-yl)-3-isopropyl-1H-indol-5-yl)piperidin-1-yl)acetonitrile] | 3.8 nM | 12.8 nM | 727 nM |
| Cc1cc(-c2[nH]c3ccc(C4CCN(CCS(C)(=O)=O)CC4)cc3c2C(C)C)cn2c(C)nnc12 [Example 32, 6-(3-isopropyl-5-(1-(2-(methylsulfonyl)ethyl)piperidin-4-yl)-1H-indol-2-yl)-3,8-dimethyl-[1,2,4]triazolo[4,3-a]pyridine] | 11.1 nM | 2.1 nM | 3670 nM |
| Cc1cc(-c2[nH]c3ccc(C4CCN(Cc5ncn(C)n5)CC4)cc3c2C(C)C)cn2c(C)nnc12 [Example 33, 6-(3-isopropyl-5-(1-((1-methyl-1H-1,2,4-triazol-3-yl)methyl)piperidin-4-yl)-1H-indol-2-yl)-3,8-dimethyl-[1,2,4]triazolo[4,3-a]pyridine] | 29.6 nM | 7.9 nM | 5160 nM |
| Cc1cc(-c2[nH]c3ccc(C4CCN(CC(=O)N(C)C)CC4)cc3c2C(C)C)cn2c(C)nnc12 [Example 34, 2-(4-(2-(3,8-dimethyl-[1,2,4]triazolo[4,3-a]pyridin-6-yl)-3-isopropyl-1H-indol-5-yl)piperidin-1-yl)-N,N-dimethylacetamide] | 9.1 nM | 4.6 nM | 1430 nM |
| Cc1cc(-c2[nH]c3ccc(C4CCN(CCS(C)(=O)=O)CC4)cc3c2C(C)C)cn2cnnc12 [Example 35, 6-(3-isopropyl-5-(1-(2-(methylsulfonyl)ethyl)piperidin-4-yl)-1H-indol-2-yl)-8-methyl-[1,2,4] triazolo[4,3-a]pyridine] | 0.7 nM | 3 nM | 5840 nM |
| Cc1cc(-c2[nH]c3ccc(C4CCN(CCCC(F)(F)F)CC4)cc3c2C(C)C)cn2cnnc12 [Example 36, 6-(3-isopropyl-5-(1-(4,4,4-trifluorobutyl)piperidin-4-yl)-1H-indol-2-yl)-8-methyl-[1,2,4]triazolo[4,3-a]pyridine] | 1.2 nM | 4.5 nM | 919 nM |
| Cc1cc(-c2[nH]c3ccc(C4CCN(CC#N)CC4)cc3c2C(C)C)cn2cnnc12 [Example 37, 2-(4-(3-isopropyl-2-(8-methyl-[1,2,4]triazolo[4,3-a]pyridin-6-yl)-1H-indol-5-yl)piperidin-1-yl)acetonitrile] | 0.3 nM | 6.5 nM | 1520 nM |
| COCc1nnc2ccc(-c3[nH]c4ccc(C5CCN(CC(=O)N(C)C)CC5)cc4c3C(C)C)cn12 [Example 38, 2-(4-(3-isopropyl-2-(3-(methoxymethyl)-[1,2,4]triazolo[4,3-a]pyridin-6-yl)-1H-indol-5-yl)piperidin-1-yl)-N,N-dimethylacetamide] | 281 nM | 402 nM | 3120 nM |

From US11130756B2, “[1,2,4]Triazolo[4,3-A]pyridinyl substituted indole compounds” (BRISTOL-MYERS SQUIBB COMPANY, priority 2017, dated 2021)
